Laboratory results reported in publication PMC7336998, “Discovery of secondary sulphonamides as IDO1 inhibitors with potent antitumour effects in vivo” (Journal of Enzyme Inhibition and Medicinal Chemistry, 2020).
Entries after “also recorded” stand apart in the source; their conditions may differ.

Tests used:
IDO1 protein expression = test: Western blot of IDO1 protein expression in IFN-γ-treated HeLa cells; type: cell-based, human
Protocol: The main bioassays performed in the study, including HeLa cell-based IDO1/kynurenine assay, Western blot analysis, T cell proliferation and Treg cell differentiation experiments, were carried out as described previously.
To exclude the possibility that these secondary sulphonamides inhibit IDO1 activity by down-regulating IDO1 expression, we utilised Western blot to measure the expression of IDO1 protein in HeLa cells treated with different compounds.
Figure 3. […] (B) The greyscale scanning statistical results of A. (C) HeLa cells were incubated with compound 5d (3, 10, 30 μM) for 24 h. (D) The greyscale scanning statistical results of C. (E) HeLa cells were incubated with compound 5d (3, 10, 30 μM) for 48 h. (F) The greyscale scanning statistical results of E. Data are presented as means ± SEM (n = 3).

[1] = molecular target: T1, IDO1 protein in HeLa cells (Homo sapiens, UniProt P14902); test: Cellular thermal shift assay (CETSA); type: binding; settings: IFN-γ 100 ng/mL 24 h, compound 2 h, 43-70 °C, Western blot
T1 construct: a human cervical cancer cell line HeLa that endogenously expresses IDO1 upon IFN-γ treatment; endogenous in cells; host or cells: HeLa cells treated with human IFN-γ
Protocol: HeLa cells were seeded in 6-well culture plates at a density of 2 × 10^5 per well. On the next day, human IFN-γ (100 ng/mL) were added and incubated for 24 h, and then the cells were treated with 5d for 2 h. At the end of incubation, cells collected and subjected to CETSA assay. Briefly, incubated cells were equally divided into 10 parts, each part was heated for 3 min under different temperature (43, 46, 49, 52, 55, 58, 61, 64, 67, and 70 °C), and then the heated cells were kept at −80 °C for 12 h, then at room temperature for 5 min, and the process repeated one more time. After that, cell lysates were extracted by centrifugation at 20,000 × g, 20 min. Levels of IDO1 protein were assessed by Western blot analysis.
The cellular thermal shift assay (CETSA) is usually used to identify compounds and their potential targets. CESTA can detect the target engagement of drugs in a cellular context based on the biophysical principle of ligand-induced thermal stabilisation of target proteins. To this end, we further employed the CETSA assay to detect whether compound 5d could directly bind to the target protein IDO1 in HeLa cells.
Figure 6. Compound 5d could bind to IDO1 protein in HeLa cells. HeLa cells were treated with human IFN-γ (100 ng/mL) for 24 h, and then treated with 5d for 2 h. […] The levels of IDO1 protein were assessed by Western blot analysis.

CT26 colon carcinoma = CT26 colon carcinoma xenograft in immunocompetent BALB/c mice (tumour growth, H&E, IHC, TUNEL, spleen FACS); type: in vivo
Protocol: BALB/c mice (6–8 weeks old, 18–22 g) were supplied by Model Animal Research Centre of Nanjing University (Nanjing, China). Mice were maintained under standard specific-pathogen-free (SPF) conditions (21 ± 2 °C and 12-h light: dark cycle). Animal welfare and experimental procedures were carried out strictly in accordance with the Guide for the Care and Use of Laboratory Animals (The Ministry of Science and Technology of China, 2006) and the related ethical regulations of our university. All efforts were made to minimise animals’ suffering and to reduce the number of animals used. Mouse colon cancer cells (CT26) and melanoma cells (B16F1) were cultured and collected by centrifugation (1000 rpm, 5 min) and washed twice with ice-cold PBS. Then cells were diluted to 1 × 10^7/ml and 1 × 10^6 CT26/B16F1 cells (in 0.1 ml PBS) were injected subcutaneously into the right flanks of mice. All mice formed tumours three days after injection. Then mice were randomly distributed into five groups (n = 10/8) according to tumour volumes. 5d ([…], 12.5 mg/kg) were administered (i.g) to each group respectively every day. 5-FU (25 mg/kg) and Cis-platinum (1 mg/kg) were administered (i.p) every three days. Tumour length and tumour width were measured with a Vernier calliper every three days. Tumour volumes were measured and calculated using the equation volume = a × b^2/2, where “a” is the maximal […] and “b” is maximal orthogonal width. After the administration were completed, mice were weighed, euthanized, and tumours were removed and the weight were taken.
For immunohistochemistry staining, the sections were deparaffinized, rehydrated, and washed in 1% PBS-Tween 20, and then treated with 2% hydrogen peroxide, blocked with 3% goat serum (Life Technology, 16210–064) and incubated for 2 h at room temperature with specific primary antibodies. Then the slides were incubated with streptavidin-HRP (Shanghai Gene Company, GK500705) for 40 min, then stained with DAB (Shanghai Gene Company, GK500705) substrate and counter-stained with haematoxylin. Images were acquired by microscopy (Olympus IX51).
Given that it was the most prominent inhibitor in vitro, we chose compound 5d for further pharmacodynamic evaluation in vivo. Bowel cancer is the third leading cause of cancer in the world, thus we first evaluated the efficacy of compound 5d on the growth of murine CT26 colon carcinoma xenograft model in immunocompetent BALB/c mice. Fluorouracil (5-FU) is one of the most commonly used drugs to different cancers including bowel cancer, and was used as the positive control. The CT26 tumour-bearing mice were treated with 5d (3.125, 6.25, 12.5 mg/kg, i.g, every day) or 5-FU (25 mg/kg, i.p, […]). Tumour volumes were measured every two days for 14 days.
Figure 7. Compound 5d suppressed colon cancer growth in immunocompetent mice. 1 × 10^6 CT26 cells were transplanted subcutaneously into the armpit of the BALB/c mice. Three days after transplantation, mice were randomly allocated to vehicle control or treatment groups (n = 10). Drugs were administered on days 1–14. Tumour volume (A) and mice body weight (B) were recorded. After sacrifice, solid tumours were separated and weighed (C, D). Data represent mean ± SEM, n = 10, *p < 0.05, **p < 0.01 vs vehicle.
In order to further observe morphological changes in tumour tissues after administration of compound 5d, the tumour tissue sections obtained from the BALB/c mice bearing CT26 colorectal tumours were stained with haematoxylin-eosin (H&E) to highlight different tissue structures, such as the nucleus and cytoplasm.
Then, to understand the mechanism of tumour cell death, we detected the level of proliferating cell nuclear antigen (PCNA) protein and tumour cell apoptosis by immunohistochemistry (IHC) and terminal deoxynucleotidyl transferase dUTP nick end labelling (TUNEL) experiments, respectively. […]

[2] = BALB/c mice, 12.5 mg/kg i.g, every day, 14 days
[3] = CT26 tumour tissue, BALB/c mice, 3.125-12.5 mg/kg i.g

T1 sequence (P14902 whole entry): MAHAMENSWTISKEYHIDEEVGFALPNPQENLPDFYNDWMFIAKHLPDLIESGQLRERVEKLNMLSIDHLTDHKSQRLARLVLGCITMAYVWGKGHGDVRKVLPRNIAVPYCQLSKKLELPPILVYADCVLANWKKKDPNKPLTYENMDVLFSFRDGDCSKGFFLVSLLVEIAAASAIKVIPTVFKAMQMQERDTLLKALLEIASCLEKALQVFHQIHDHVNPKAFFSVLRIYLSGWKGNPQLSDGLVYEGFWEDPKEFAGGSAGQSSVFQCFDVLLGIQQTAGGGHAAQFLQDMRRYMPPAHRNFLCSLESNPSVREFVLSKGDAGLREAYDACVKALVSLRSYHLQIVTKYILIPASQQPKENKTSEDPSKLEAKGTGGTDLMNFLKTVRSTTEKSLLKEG

For `C=CC(=O)Nc1ccc(S(=O)(=O)NCc2cccc(Cl)c2)cc1` [5d, N-(4-(N-(3-Chlorobenzyl)sulfamoyl)phenyl)acrylamide], the “expression of IDO1 protein” value (IDO1 protein expression; HeLa cells, 3, 10, 30 µM for 24 h or 48 h) was “did not affect IDO1 expression”, the “expression of IDO1 protein” value (IDO1 protein expression; HeLa cells, IFN-γ 100 ng/mL 24 h, then compounds at their IC50 concentrations for 24 h) was “did not influence IDO1 expression” and the “thermal stability of IDO1 protein” value [1] was “improve the thermal stability of IDO1 protein; also recorded: still maintained the protein stability at 55 °C”. The “body weight of the mice” value (CT26 colon carcinoma; 14-day treatment, vs vehicle group) was “no significant change in body weight”, the “reduction of average tumour weight” value (CT26 colon carcinoma; [2]) was 37.5% and the “reduction of tumour volume” value (CT26 colon carcinoma; [2]) was 35.9%. The tumour growth (CT26 colon carcinoma; BALB/c mice, 3.125, 6.25, 12.5 mg/kg, i.g, every day, 14 days, vs vehicle) was “significantly suppressed the growth of tumour in a dose-dependent manner”, the “number of tumour cells (H&E staining)” value (CT26 colon carcinoma; [3]) was “decreased the number of tumour cells” and the “tumour cell apoptosis (TUNEL)” value (CT26 colon carcinoma; [3]) was “significantly induced the tumour cell apoptosis in a dose-dependent manner”. For the same compound, the “expression of IFN-γ (IHC)” value (CT26 colon carcinoma; CT26 tumour tissue, BALB/c mice, 3.125-12.5 mg/kg i.g, vs vehicle) was “increased the expression of IFN-γ in a dose-dependent manner”, the “granzyme B levels (IHC)” value (CT26 colon carcinoma; CT26 tumour tissue, BALB/c mice, all doses) was “elevated granzyme B levels” and the “FoxP3+ Treg cells in spleen (FACS)” value (CT26 colon carcinoma; CT26 tumour-bearing mice, 3.125 mg/kg) was 4.79%. The “FoxP3+ Treg cells in spleen (FACS)” value (CT26 colon carcinoma; CT26 tumour-bearing mice, 6.25 mg/kg) was 4.13%, the “FoxP3+ Treg cells in spleen (FACS)” value (CT26 colon carcinoma; CT26 tumour-bearing mice, 12.5 mg/kg) was 2.62% and the “number of FoxP3+ Treg cells in spleen (in words)” value (CT26 colon carcinoma; CT26 tumour-bearing mice, 3.125-12.5 mg/kg) was “decreased the number of FoxP3^+ Treg cells in a dose-dependent manner”. For the same compound, the “reduction of FoxP3+ Treg cells compared with the vehicle group” value (CT26 colon carcinoma; spleen, high dose group) was 2.4 fold.
